Tested on: SEM cells
Experiment: cell viability relative to DMSO control; higher = less cytotoxic
Conditions: 48 h
How it was run: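 NOMO1 or SEM cells were plated at 500 cells/well and P12-Ichikawa cells at 1000 cells/well in 1536-well plates (5 μl), after each leukemia line had been adapted for at least four passages in each medium. Pin dosing delivered library compounds in DMSO at 11 threefold concentrations, 47 μM to 0.79 nM. CellTiter-Glo One luminescence was read after 48 h at 37°C. Viability is reported as a per-plate percentage of DMSO wells, with cell-free wells as background.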

[1] = HPLM + 10% dialyzed FBS, 0.000781 µM
[2] = HPLM + 10% dialyzed FBS, 0.00234 µM
[3] = HPLM + 10% dialyzed FBS, 0.00702 µM
[4] = HPLM + 10% dialyzed FBS, 0.0211 µM
[5] = HPLM + 10% dialyzed FBS, 0.0632 µM
[6] = HPLM + 10% dialyzed FBS, 0.19 µM
[7] = HPLM + 10% dialyzed FBS, 0.569 µM
[8] = HPLM + 10% dialyzed FBS, 1.71 µM
[9] = HPLM + 10% dialyzed FBS, 5.12 µM
[10] = HPLM + 10% dialyzed FBS, 15.4 µM
[11] = HPLM + 10% dialyzed FBS, 46.1 µM
[12] = RPMI 5 mM glucose + 10% FBS, 0.000781 µM
[13] = RPMI 5 mM glucose + 10% FBS, 0.00234 µM
[14] = RPMI 5 mM glucose + 10% FBS, 0.00702 µM
[15] = RPMI 5 mM glucose + 10% FBS, 0.0211 µM
[16] = RPMI 5 mM glucose + 10% FBS, 0.0632 µM
[17] = RPMI 5 mM glucose + 10% FBS, 0.19 µM
[18] = RPMI 5 mM glucose + 10% FBS, 0.569 µM
[19] = RPMI 5 mM glucose + 10% FBS, 1.71 µM
[20] = RPMI 5 mM glucose + 10% FBS, 5.12 µM
[21] = RPMI 5 mM glucose + 10% FBS, 15.4 µM
[22] = RPMI 5 mM glucose + 10% FBS, 46.1 µM
[23] = RPMI 5 mM glucose + 10% dialyzed FBS, 0.000781 µM
[24] = RPMI 5 mM glucose + 10% dialyzed FBS, 0.00234 µM
[25] = RPMI 5 mM glucose + 10% dialyzed FBS, 0.00702 µM
[26] = RPMI 5 mM glucose + 10% dialyzed FBS, 0.0211 µM
[27] = RPMI 5 mM glucose + 10% dialyzed FBS, 0.0632 µM
[28] = RPMI 5 mM glucose + 10% dialyzed FBS, 0.19 µM
[29] = RPMI 5 mM glucose + 10% dialyzed FBS, 0.569 µM
[30] = RPMI 5 mM glucose + 10% dialyzed FBS, 1.71 µM
[31] = RPMI 5 mM glucose + 10% dialyzed FBS, 5.12 µM
[32] = RPMI 5 mM glucose + 10% dialyzed FBS, 15.4 µM
[33] = RPMI 5 mM glucose + 10% dialyzed FBS, 46.1 µM

Row | Structure (SMILES) | cell viability [1] | cell viability [2] | cell viability [3] | cell viability [4] | cell viability [5] | cell viability [6] | cell viability [7] | cell viability [8] | cell viability [9] | cell viability [10] | cell viability [11] | cell viability [12] | cell viability [13] | cell viability [14] | cell viability [15] | cell viability [16] | cell viability [17] | cell viability [18] | cell viability [19] | cell viability [20] | cell viability [21] | cell viability [22] | cell viability [23] | cell viability [24] | cell viability [25] | cell viability [26] | cell viability [27] | cell viability [28] | cell viability [29] | cell viability [30] | cell viability [31] | cell viability [32] | cell viability [33]
1 | CCCC(C)(COC(N)=O)COC(=O)NC(C)C (stereo unspecified) | 87.5% | 95.9% | 117% | 111% | 139% | 120% | 120% | 131% | 126% | 123% | 130% | 97.3% | 113% | 140% | 138% | 127% | 148% | 147% | 163% | 134% | 149% | 160% | 88% | 121% | 144% | 150% | 138% | 128% | 156% | 143% | 139% | 164% | 153%
2 | C[C@]12Cc3cn[nH]c3C[C@@H]1CC[C@@H]1[C@@H]2CC[C@@]2(C)[C@H]1CC[C@]2(C)O | 108% | 105% | 105% | 79.7% | 100% | 88.6% | 83.6% | 75.8% | 90.4% | 97.4% | 88.1% | 102% | 108% | 104% | 119% | 116% | 104% | 118% | 104% | 99.4% | 114% | 101% | 103% | 94.9% | 106% | 123% | 110% | 103% | 108% | 107% | 111% | 105% | 95.8%
3 | CCOc1cc2ncc(C#N)c(Nc3ccc(F)c(Cl)c3)c2cc1NC(=O)/C=C/CN(C)C | 88.3% | 118% | 120% | 123% | 118% | 73.1% | 71% | 55.6% | 37.4% | 20.1% | 4.15% | 75.1% | 110% | 108% | 114% | 116% | 58.9% | 52.1% | 40.2% | 24.5% | 11.5% | 3.17% | 79.9% | 115% | 131% | 120% | 126% | 66.2% | 67.3% | 52% | 29.9% | 11.7% | 3.53%
4 | O=C(Nc1nnc(-c2ccco2)o1)c1cc(-c2ccccc2)nc2ccccc12 | 87.5% | 96.5% | 96.3% | 95% | 91.5% | 110% | 95.3% | 106% | 103% | 93% | 4.54% | 92.6% | 75.1% | 95.6% | 79.7% | 104% | 95.6% | 98.2% | 85% | 41.3% | 5.04% | 2.95% | 91.8% | 94.2% | 104% | 101% | 107% | 109% | 99% | 95.3% | 106% | 77.8% | 3.49%
5 | C[C@@H]1O[C@@H](O[C@H]2C[C@@H](O)[C@]3(CO)[C@H]4[C@H](O)C[C@]5(C)[C@@H](C6=CC(=O)OC6)CC[C@]5(O)[C@@H]4CC[C@]3(O)C2)[C@H](O)[C@H](O)[C@H]1O | 85.4% | 99.6% | 93.6% | 85.8% | 17.8% | 9.08% | 7.03% | 5.97% | 7.25% | 6.63% | 6.23% | 109% | 113% | 114% | 106% | 109% | 14.9% | 7.93% | 6.18% | 8% | 7.1% | 6.23% | 104% | 100% | 97.3% | 98.3% | 60% | 12.6% | 7.03% | 6.93% | 8.44% | 7.07% | 7.5%
6 | CO[C@@]12[C@H](COC(N)=O)C/3=C(N1C[C@@H]4N[C@H]24)/C(=O)/C(=C(N)\C3=O)C | 123% | 123% | 123% | 114% | 115% | 115% | 125% | 121% | 95.7% | 108% | 81.7% | 91.7% | 97.2% | 90.7% | 96.2% | 90% | 97.1% | 75.5% | 95.3% | 86.5% | 92.2% | 74% | 131% | 121% | 124% | 112% | 121% | 112% | 116% | 125% | 118% | 114% | 85.3%
7 | CC(=O)OC[C@H]1O[C@@H]([S-])[C@H](OC(C)=O)[C@@H](OC(C)=O)[C@@H]1OC(C)=O.CCP(CC)CC.[Au+] | 73.4% | 72.8% | 68.7% | 82.1% | 73.6% | 97.6% | 84% | 83.1% | 15.9% | 6.62% | 6.21% | 91.1% | 75% | 87.3% | 84.8% | 77.8% | 105% | 101% | 88.5% | 6.02% | 6.28% | 5.83% | 78.4% | 85.1% | 78.6% | 80.1% | 77.6% | 87.2% | 84.5% | 69.4% | 7.37% | 6.42% | 5.84%
